Consider 18 molecules from patent US6936602B1, “Benzazepine derivatives, process for the preparation of the same and uses thereof” (Takeda Chemical Industries, Ltd., priority 1999, dated 2005).

In general, melting point refers to the temperature of the solid-liquid transition.

The target in one data set is T1, human CCR5 (Homo sapiens, UniProt P51681).
T1 construct: expressed in transfected cells
Kind of data set: Evaluation of test compounds based on CCR5 antagonistic activity: inhibition of [125I]-RANTES binding to CCR5/CHO cells. As to conditions: Test Compound 1 μM, 100 pM [125I]-RANTES, room temperature for 40 minutes; for inhibition at 1 µM: read-out: Inhibitory Rate (%). The procedure:
Cloning of CCR5 gene was carried out by a PCR method from human spleen cDNA. With using 0.5 ng of spleen cDNA (Toyobo, QUICK-Clone cDNA) as template, PCR was performed in DNA Thermal Cycler 480 (Perkin-Elmer) (reaction conditions: 30 cycles of 95° C. for 1 minute, 60° C. for 1 minute, and 75° C. for 5 minutes) by adding each 25 pmol of primers of a primer set, • SEQ ID NO.: 1 described in Test Example (1) of WO 99/32100 [length of sequence: 34; type of sequence: nucleic acid; strandedness: single; topology: straight; kind of sequence: other nucleic acid synthetic DNA, and • SEQ ID NO.: 2 described in Test Example (1) of WO 99/32100 [length of sequence: 34; type of sequence: nucleic acid; strandedness: single; topology: straight; kind of sequence: other nucleic acid synthetic DNA which were designed referring to nucleotide sequence of CCR5 gene reported by Samson et. al. (Biochemistry, 35(11), 3362-3367 (1996)) and by using TaKaRa EX Taq (Takara Shuzo). The resultant PCR product was subjected to agarose gel electrophoresis to collect about 1.0 kb DNA fragment, which was subjected to Original TA Cloning Kit (Funakoshi) to carry out cloning of CCR5 gene. (2) Preparation of Plasmid for Expression of Human CCR5
The plasmid obtained in the above (1) was digested with restriction enzymes XbaI (Takara Shuzo) and BamHI (Takara Shuzo) and subjected to agarose gel electrophoresis to collect about 1.0 kb DNA fragment.
The DNA fragment was mixed with plasmid pcDNA3.1 (Funakoshi) for expression in animal cells, said plasmid being digested with XbaI and BamHI, and they were ligated with DNA Ligation Kit Ver.2 (Takara Shuzo). The resulting plasmid was subjected to transformation of competent cell of E. coli JM109 (Takara Shuzo) to obtain plasmid pCKR5.
CHO-K1 cells were grown in 750 ml of tissue culture flask (Becton Dickinson) using Ham's F12 medium (Nihon Pharmaceutical) containing 10% fetal calf serum (Life Tech Oriental) and taken off with 0.5 g/L trypsin-0.2 g/L EDTA (Life Tech Oriental). The cells were washed with PBS (Life Tech Oriental), centrifuged (1000 rpm, 5 minutes), and suspended in PBS. With using Gene Pulser (Bio-Rad Laboratories), DNA was introduced into the cells under the conditions shown below. That is, to the cuvette of 0.4 cm gap were added 8×10^6 cells and 10 μg of plasmid pCKR5 for expression of human CCR5, and electroporation was carried out under 0.25 kV of voltage and 960 μF of capacitance. The cells were transferred into Ham's F12 medium containing 10% fetal calf serum, and cultivated for 24 hours. The cells were again taken off and centrifuged, and suspended in Ham's F12 medium containing 10% fetal calf serum and 500 μg/ml of geneticin (Life Tech Oriental). The suspension was diluted to give 10^4 cells/ml of the suspension, which was inoculated on a 96 well plate (Becton Dickinson) to give geneticin resistant cells.
The resulting geneticin resistant cells were cultivated in 96 well plate (Becton Dickinson), and cells expressing CCR5 were selected from the geneticin resistant cells. That is, in assay buffer (Ham's F12 medium containing 0.5% BSA and 20 mM HEPES (Wako Pure Chemical, pH7.2)) to which was added 200 pM of [^125I]-RANTES (Amersham) as a ligand, a binding reaction was carried out at room temperature for 46 minutes, and the buffer was washed with cooled PBS. To the buffer was added 50 μl/well of 1M NaOH, and the mixture was stirred. Radioactivity was determined with a y-counter to select CCR5/CHO cells which specifically bind to the ligand.
The CCR5/CHO cells were inoculated on 96 well microplate (5×10^4 cells/well) and cultivated for 24 hours. The medium was removed by means of suction, and to each well was added an assay buffer containing Test Compound (1 μM) and then 100 pM of [^125I]-RANTES (Amersham) as a ligand. A binding assay was carried out at room temperature for 40 minutes, and an assay buffer was removed by means of suction. […]

T1 sequence (P51681 whole entry): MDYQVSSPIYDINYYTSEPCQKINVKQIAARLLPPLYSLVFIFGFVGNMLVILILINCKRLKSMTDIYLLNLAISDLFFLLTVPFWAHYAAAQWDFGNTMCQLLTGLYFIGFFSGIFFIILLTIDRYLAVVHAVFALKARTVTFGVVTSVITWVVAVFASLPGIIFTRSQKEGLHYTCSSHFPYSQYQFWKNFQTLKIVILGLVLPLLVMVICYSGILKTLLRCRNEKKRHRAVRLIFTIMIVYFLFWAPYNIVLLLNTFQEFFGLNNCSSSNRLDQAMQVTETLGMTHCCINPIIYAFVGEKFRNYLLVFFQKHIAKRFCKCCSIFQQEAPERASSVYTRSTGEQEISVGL

For `CCCCOCCOc1ccc(-c2ccc3c(c2)C=C(C(=O)Nc2ccc(CN(C)C4CCOCC4)cc2)CCN3CCC)cc1` [Compound 27, 7-[4-(2-butoxyethoxy)phenyl]-N-[4-[[N-methyl-N-(tetrahydro-2H-pyran-4-yl)amino]methyl]phenyl]-1-propyl-2,3-dihydro-1H-1-benzazepine-4-carboxamide], the melting point was 122 to 124 °C. Moreover, the inhibition at 1 µM at human CCR5 is 100%. In the case of `CCCCOCCOc1ccc(-c2ccc3c(c2)C=C(C(=O)Nc2ccc(CN(C)C4CCOCC4)cc2)CCN3Cc2nccs2)cc1` [Compound 68, 7-(4-butoxyethoxyphenyl)-N-[4-[[N-methyl-N-(tetrahydropyran-4-yl)amino]methyl]phenyl]-1-(thiazol-2-yl)methyl-2,3-dihydro-1-benzazepine-4-carboxamide], the inhibition at 1 µM at human CCR5 was found to be 95%. On to `CCCCOCCOc1ccc(-c2ccc3c(c2)C=C(C(=O)Nc2ccc(CN(C)C4CCOCC4)cc2)CCN3Cc2cncs2)cc1` [Compound 98], for which the “Inhibitory Rate (%)” value on human CCR5 worked out at 100%. With `CCCOCCOc1ccc(-c2ccc3c(c2)C=C(C(=O)Nc2ccc(CN(C)C4CCOCC4)cc2)CCN3CCC)cc1` [Compound 26, N-[4-[[N-methyl-N-(tetrahydro-2H-pyran-4-yl)amino]methyl]phenyl]-7-[4-(2-propoxyethoxy)phenyl]-1-propyl-2,3-dihydro-1H-1-benzazepine-4-carboxamide], the melting point is 128 to 130 °C. Moreover, at human CCR5, the inhibition at 1 µM came to 100%. For the molecule `CCOCCOc1ccc(-c2ccc3c(c2)C=C(C(=O)Nc2ccc(CN(C)C4CCOCC4)cc2)CCN3C=O)cc1F` [Compound 20, 7-[4-(2-ethoxy)ethoxy-3-fluorophenyl]-1-formyl-N-[4-[[N-methyl-N-(tetrahydro-2H-pyran-4-yl)amino]methyl]phenyl]-2,3-dihydro-1H-1-benzazepine-4-carboxamide], the inhibition at 1 µM on human CCR5 was determined as 94%.

`CCCCOCCOc1ccc(-c2ccc3c(c2)C=C(C(=O)Nc2ccc(CN(C)C4CCOCC4)cc2)CCN3c2ccc3c(c2)OCO3)cc1` [Compound 43, 7-[4-(2-butoxyethoxy)phenyl]-1-(3,4-methylenedioxyphenyl)-N-[4-[[N-methyl-N-(tetrahydro-2H-pyran-4-yl)amino)methyl]phenyl]-2,3-dihydro-1H-1-benzazepine-4-carboxamide]: on human CCR5, the inhibition at 1 µM was found to be 100%. `CCCCOCCOc1ccc(-c2ccc3c(c2)C=C(C(=O)Nc2ccc(CN(C)C4CCOCC4)cc2)CCN3Cc2ccccc2)cc1` [Compound 33, 1-benzyl-7-[4-(2-butoxyethoxy)phenyl]-N-[4-[[N-methyl-N-(tetrahydro-2H-pyran-4-yl)amino]methyl]phenyl]-2,3-dihydro-1H-1-benzazepine-4-carboxamide] had a melting point of 127 to 131 °C. Also, the inhibition at 1 µM on human CCR5 stood at 98%. As for `CCCCOCCOc1ccc(-c2ccc3c(c2)C=C(C(=O)Nc2ccc(CN(C)C4CCOCC4)cc2)CCN3CC(C)C)cc1` [Compound 85], the “Inhibitory Rate (%)” value at human CCR5 worked out at 100%. Turning to `C=CCN1CCC(C(=O)Nc2ccc(CN(C)C3CCOCC3)cc2)=Cc2cc(-c3ccc(OCCOCCC)cc3)ccc21` [Compound 49, 1-allyl-N-[4-[[N-methyl-N-(tetrahydropyran-4-yl)amino]methyl]phenyl]-7-(4-propoxyethoxyphenyl)-2,3-dihydro-1-benzazepine-4-carboxamide], the melting point was 110 to 111 °C. Further, the inhibition at 1 µM at human CCR5 is 100%. Turning to `CCCCOCCOc1ccc(-c2ccc3c(c2)C=C(C(=O)Nc2ccc(CN(C)C4CCCOC4)cc2)CCN3Cc2cnn(CC)c2)cc1` (stereo not shown) [Compound 79, 7-(4-butoxyethoxyphenyl)-1-[(1-ethylpyrazol-4-yl)methyl]-N-[4-[[N-methyl-N-(tetrahydropyran-5-yl)amino]methyl]phenyl]-2,3-dihydro-1-benzazepine-4-carboxamide], the inhibition at 1 µM on human CCR5 was 100%. Turning to `CCCOCCOc1ccc(-c2ccc3c(c2)C=C(C(=O)Nc2ccc(CN(C)C4CCOCC4)cc2)CCN3CC(C)C)cc1` [Compound 84, 1-isobutyl-N-[4-[N-methyl-N-(tetrahydropyran-4-yl)aminomethyl]phenyl]-7-[4-(2-propoxyethoxy)phenyl]-2,3-dihydro-1-benzazepine-4-carboxamide], the inhibition at 1 µM at human CCR5 worked out at 97%. On the same count and under the same terms, the same measure for `CCCCOCCOc1ccc(-c2ccc3c(c2)C=C(C(=O)Nc2ccc(CN(C)C4CCOCC4)cc2)CCN3Cc2c(C)noc2C)cc1` [Compound 71, 7-(4-butoxyethoxyphenyl)-1-[(3,5-dimethylisoxazol-4-yl)methyl]-N-[4-[[N-methyl-N-(tetrahydropyran-4-yl)amino]methyl]phenyl]-2,3-dihydro-1-benzazepine-4-carboxamide]: 100%; for `CCCCOCCOc1ccc(-c2ccc3c(c2)C=C(C(=O)Nc2ccc(CN(C)C4CCOCC4)cc2)CCN3c2ccccc2)cc1` [Compound 39, 7-[4-(2-butoxyethoxy)phenyl]-1-phenyl-N-[4-[[N-methyl-N-(tetrahydro-2H-pyran-4-yl)amino]methyl]phenyl]-2,3-dihydro-1H-1-benzazepine-4-carboxamide]: 98%; for `CCCCOCCOc1ccc(-c2ccc3c(c2)C=C(C(=O)Nc2ccc(CN(C)C4CCOCC4)cc2)CCN3Cc2cnn(C)c2)cc1` [Compound 69, 7-(4-butoxyethoxyphenyl)-1-[(1-methylpyrazol-4-yl)methyl]-N-[4-[[N-methyl-N-(tetrahydropyran-4-yl)amino]methyl]phenyl]-2,3-dihydro-1-benzazepine-4-carboxamide]: 100%. As for `CCCCOCCOc1ccc(-c2ccc3c(c2)C=C(C(=O)Nc2ccc(CN(C)C4CCOCC4)cc2)CCN3Cc2nnn(CC)n2)cc1` [Compound 112, 7-[4-(2-butoxyethoxy)phenyl]-1-(2-ethyltetrazol-5-ylmethyl)-N-[4-[N-methyl-N-(tetrahydropyran-4-yl)aminomethyl]phenyl]-2,3-dihydro-1-benzazepine-4-carboxamide], the inhibition at 1 µM at human CCR5 worked out at 100%. Still for that read-out and setting: the same measure for `CCCCOCCOc1ccc(-c2ccc3c(c2)C=C(C(=O)Nc2ccc(CN(C)C4CCOCC4)cc2)CCN3Cc2nnn(C)n2)cc1` [Compound 102, 7-[4-(2-butoxyethoxy)phenyl]-N-[4-[N-methyl-N-(tetrahydropyran-4-yl)aminomethyl]phenyl]-1-(2-methyltetrazol-5-ylmethyl)-2,3-dihydro-1-benzazepine-4-carboxamide]: 100%. As to `CCCCOCCOc1ccc(-c2ccc3c(c2)C=C(C(=O)Nc2ccc(CN(C)C4CCCOC4)cc2)CCN3Cc2cc(C)ns2)cc1` (stereo not shown) [Compound 77, 7-(4-butoxyethoxyphenyl)-1-[(3-methylisothiazol-5-yl)methyl]-N-[4-[[N-methyl-N-(tetrahydropyran-5-yl)amino]methyl]phenyl]-2,3-dihydro-1-benzazepine-4-carboxamide], the inhibition at 1 µM on human CCR5 amounted to 97%. As to `CCCCOCCOc1ccc(-c2ccc3c(c2)C=C(C(=O)Nc2ccc(CN(C)C4CCOCC4)cc2)CCN3CC)cc1` [Compound 19, 7-[4-(2-butoxyethoxy)phenyl]-1-ethyl-N-[4-[[N-methyl-N-(tetrahydro-2H-pyran-4-yl)amino]methyl]phenyl]-2,3-dihydro-1-H-1-benzazepine-4-carboxamide], the “Inhibitory Rate (%)” value on human CCR5 came out at 100%.
